Reference: ChEMBL document CHEMBL1157700, “Synthesis of 3-[(N-carboalkoxy)ethylamino]-indazole-dione derivatives and their biological activities on human liver carbonyl reductase” (Bioorg Med Chem, 2010)

Tested on: A549
Assay: Potentiation of daunorubicin-induced cytotoxicity against human A549 cells
Assay type: functional

## CNc1ncnc2c1c(-c1cccc(O)c1)cn2C(C)C
  Activity: 25%
